Measurements: PubChem BioAssay AID1919017 (Molecular Pharmacology Branch, DTP, NCI, 2023)

Tested on: SW1271 complex spheroids with HUVEC/MSC, growth, % test/control
Assay: Anticancer human tumor SW1271 cell line growth inhibition [AhR];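 further: spheroids exposed to agents for 7 days before readout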
Conditions: for IC50: curve of first compound; for viability, T/C: stronger effect = lower value
Procedure, shortened: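 Agents were dosed in half-log steps down from roughly clinical Cmax, or from 10 microM where Cmax was unknown, alone and with AhR antagonists. Read-out: percent test/control growth of tumor spheroids containing HUVEC and MSC stromal cells.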

[1] = second compound 0.1 µM, first compound 0.0316 µM
[2] = second compound 0.1 µM, first compound 0.1 µM
[3] = second compound 0.1 µM, first compound 0.316 µM
[4] = second compound 0.1 µM, first compound 1 µM
[5] = second compound 0.1 µM, first compound 3.16 µM
[6] = second compound 0.1 µM, first compound 10 µM
[7] = second compound 0.316 µM, first compound 0.0316 µM
[8] = second compound 0.316 µM, first compound 0.1 µM
[9] = second compound 0.316 µM, first compound 0.316 µM
[10] = second compound 0.316 µM, first compound 1 µM
[11] = second compound 0.316 µM, first compound 3.16 µM
[12] = second compound 0.316 µM, first compound 10 µM
[13] = second compound 1 µM, first compound 0.0316 µM
[14] = second compound 1 µM, first compound 0.1 µM
[15] = second compound 1 µM, first compound 0.316 µM
[16] = second compound 1 µM, first compound 1 µM
[17] = second compound 1 µM, first compound 3.16 µM
[18] = second compound 1 µM, first compound 10 µM
[19] = second compound 3.16 µM, first compound 0.0316 µM
[20] = second compound 3.16 µM, first compound 0.1 µM
[21] = second compound 3.16 µM, first compound 0.316 µM
[22] = second compound 3.16 µM, first compound 1 µM
[23] = second compound 3.16 µM, first compound 3.16 µM
[24] = second compound 3.16 µM, first compound 10 µM
[25] = second compound 10 µM, first compound 0.0316 µM
[26] = second compound 10 µM, first compound 0.1 µM
[27] = second compound 10 µM, first compound 0.316 µM
[28] = second compound 10 µM, first compound 1 µM
[29] = second compound 10 µM, first compound 3.16 µM
[30] = second compound 10 µM, first compound 10 µM

For Nc1ccccc1NC(=O)c1ccc(CNC(=O)OCc2cccnc2)cc1 + Cc1cncc(-c2nc(NCCc3c[nH]c4ccccc34)c3ncn(C(C)C)c3n2)c1, the IC50 (second compound 0.1 µM) was 1890 nM, the IC50 (second compound 0.316 µM) was 1740 nM and the IC50 (second compound 1 µM) was 2490 nM. For the same compound, the IC50 (second compound 3.16 µM) was 1190 nM, the IC50 (second compound 10 µM) was under 31.6 nM and the viability, T/C [1] was 94.7%. For the same compound, the viability, T/C [2] was 110%, the viability, T/C [3] was 95.5% and the viability, T/C [4] was 69.8%. For the same compound, the viability, T/C [5] was 34.3%, the viability, T/C [6] was 15.8% and the viability, T/C [7] was 109%. For the same compound, the viability, T/C [8] was 104%, the viability, T/C [9] was 97.4% and the viability, T/C [10] was 62.9%. It also gave a viability, T/C [11] of 35.5%, a viability, T/C [12] of 17% and a viability, T/C [13] of 121%. It also gave a viability, T/C [14] of 118%, a viability, T/C [15] of 88.9% and a viability, T/C [16] of 63.1%. The viability, T/C [17] was 51.9%, the viability, T/C [18] was 17.1% and the viability, T/C [19] was 121%. For the same compound, the viability, T/C [20] was 107%, the viability, T/C [21] was 112% and the viability, T/C [22] was 52.8%. The viability, T/C [23] was 36%, the viability, T/C [24] was 16.7% and the viability, T/C [25] was 44.2%. The viability, T/C [26] was 46.3%, the viability, T/C [27] was 35.3% and the viability, T/C [28] was 24%. The viability, T/C [29] was 18.3% and the viability, T/C [30] was 14.3%.
Work on O=C(C=Cc1cccc(S(=O)(=O)Nc2ccccc2)c1)NO + Cc1cncc(-c2nc(NCCc3c[nH]c4ccccc34)c3ncn(C(C)C)c3n2)c1 yielded an IC50 (second compound 0.1 µM) of 1880 nM, an IC50 (second compound 0.316 µM) of 1390 nM and an IC50 (second compound 1 µM) of 2090 nM. For the same compound, the IC50 (second compound 3.16 µM) was 1460 nM, the IC50 (second compound 10 µM) was 210 nM and the viability, T/C [1] was 97.2%. For the same compound, the viability, T/C [2] was 93.9%, the viability, T/C [3] was 83.2% and the viability, T/C [4] was 68.3%. It also gave a viability, T/C [5] of 35.5%, a viability, T/C [6] of 16.9% and a viability, T/C [7] of 104%. The viability, T/C [8] was 102%, the viability, T/C [9] was 96.8% and the viability, T/C [10] was 61.9%. For the same compound, the viability, T/C [11] was 20.2%, the viability, T/C [12] was 16.6% and the viability, T/C [13] was 97.4%. It also gave a viability, T/C [14] of 97.8%, a viability, T/C [15] of 84.5% and a viability, T/C [16] of 65.4%. The viability, T/C [17] was 41.7%, the viability, T/C [18] was 15.9% and the viability, T/C [19] was 107%. For the same compound, the viability, T/C [20] was 115%, the viability, T/C [21] was 97.7% and the viability, T/C [22] was 57.5%. The viability, T/C [23] was 33.7%, the viability, T/C [24] was 16.6% and the viability, T/C [25] was 49.9%. The viability, T/C [26] was 53.5%, the viability, T/C [27] was 53.1% and the viability, T/C [28] was 39.8%. For the same compound, the viability, T/C [29] was 39.2% and the viability, T/C [30] was 25.5%.
Work on O=C(c1cc(Cc2n[nH]c(=O)c3ccccc23)ccc1F)N1CCN(C(=O)C2CC2)CC1 + Cc1cncc(-c2nc(NCCc3c[nH]c4ccccc34)c3ncn(C(C)C)c3n2)c1 yielded an IC50 (second compound 0.1 µM) of over 10000 nM, an IC50 (second compound 0.316 µM) of over 10000 nM and an IC50 (second compound 1 µM) of over 10000 nM. The IC50 (second compound 3.16 µM) was over 10000 nM, the IC50 (second compound 10 µM) was under 31.6 nM and the viability, T/C [1] was 74.1%. For the same compound, the viability, T/C [2] was 75.8%, the viability, T/C [3] was 83.6% and the viability, T/C [4] was 75.6%. For the same compound, the viability, T/C [5] was 102%, the viability, T/C [6] was 100% and the viability, T/C [7] was 84.9%. The viability, T/C [8] was 94.2%, the viability, T/C [9] was 95.5% and the viability, T/C [10] was 83.7%. It also gave a viability, T/C [11] of 90.2%, a viability, T/C [12] of 91.4% and a viability, T/C [13] of 84.9%. It also gave a viability, T/C [14] of 91.2%, a viability, T/C [15] of 79.3% and a viability, T/C [16] of 80.2%. For the same compound, the viability, T/C [17] was 81.7%, the viability, T/C [18] was 75.8% and the viability, T/C [19] was 90.7%. It also gave a viability, T/C [20] of 78.7%, a viability, T/C [21] of 96.6% and a viability, T/C [22] of 75.6%. For the same compound, the viability, T/C [23] was 62.9%, the viability, T/C [24] was 80.1% and the viability, T/C [25] was 50.1%. It also gave a viability, T/C [26] of 46.4%, a viability, T/C [27] of 46.4% and a viability, T/C [28] of 33.3%. The viability, T/C [29] was 44.9% and the viability, T/C [30] was 34.7%.
